Results published in patent US10206922B2, “Substituted pyrimidines for treatment of chronic cough, neuronal hypersensitivity underlying chronic cough, neuronal hypersensitivity underlying sub-acute cough and neuronal hypersensitivity underlying acute cough” (Afferent Pharmaceuticals. Inc., priority 2013, dated 2019).

Tested on: idiopathic/treatment-resistant chronic cough patients
Assay: double-blind randomized placebo-controlled crossover trial in idiopathic/treatment-resistant chronic cough
Assay type: in vivo, human
Details: 2 weeks
Protocol: Thus, the inventors explored the role of P2X3 receptors in the sensitization of vagal pathways mediating the cough reflex leading to chronic cough (CC). A study was performed to investigate the efficacy of oral administration of Compound 16 in reducing daytime cough in idiopathic/treatment-resistant chronic cough.
In this study, a double-blind randomized placebo-controlled crossover trial, 24 subjects (19 women, mean age 55 yrs) were randomized into a double blind, placebo-controlled, 2-period, crossover study, of Compound 16, 600 mg bd. Cough was assessed using an ambulatory sound monitoring system at baseline and after 2 weeks of treatment; primary endpoint, daytime objective cough frequency (coughs/hr) (VitaloJAK™); secondary endpoints, cough severity and urge to cough (UTC) visual analogue scales (VAS), global ratings of change and cough quality of life questionnaire (CQLQ).

COc1cc(C(C)C)c(Oc2cnc(N)nc2N)cc1S(N)(=O)=O [Compound 16, 5-(2,4-Diamino-pyrimidin-5-yloxy)-4-isopropyl-2-methoxy-benzenesulfonamide]
CQLQ (cough quality of life questionnaire), mean difference vs. placebo (600 mg bd oral, (−2 to −17), p=0.018): −9
UTC (urge to cough) VAS, mean difference vs. placebo (600 mg bd oral, (−2 to −41), p=0.035): −21 mm
cough severity VAS, mean difference vs. placebo (600 mg bd oral, (−10 to −42), p=0.003): −26 mm
patients who rated an improved cough (global rating of change) (600 mg bd oral, compared to 2/22 treated with placebo): 13/24
daytime coughs/hr (daytime objective cough frequency), mean difference vs. placebo (Compound 16 600 mg bd oral, 24 subjects, 95% CI −50 to −88, p<0.001): −75%
